Results taken from patent US9926261B2, “Bacterial efflux pump inhibitors” (Rutgers, The State University of New Jersey, priority 2015, dated 2018).

System: Escherichia coli W4573
Experiment: Test A. Minimum Inhibitory Concentration (MIC)-based assay for efflux pump inhibition (enhancement of minocycline MIC)
Assay type: cell-based
Conditions: ratio of minocycline MIC in absence of test compound to minocycline MIC in presence of test compound, test compound 12.5 μg/mL, CAMH broth, 24 hours at 37° C.
Protocol: Test A. Minimum Inhibitory Concentration (MIC)-Based Assay for Efflux Pump Inhibition:
MIC-based assays were used to evaluate the impact of potential efflux pump inhibiting (EPI) compounds on the MIC of minocycline, an antibiotic known to be a substrate for Gram-negative bacterial efflux pumps. The assays were conducted in accordance with Clinical and Laboratory Standards Institute (CLSI) guidelines for broth microdilution, with the modification that assays were conducted in the presence and absence of the test EPI compounds. When present, the EPI compounds were added to cation-adjusted Mueller-Hinton (CAMH) broth (Becton, Dickinson and Co., Franklin Lakes, N.J.) at a final concentration of 12.5 μg/mL.
Log-phase Gram-negative bacteria were added to 96-well microtiter plates (at 5×10^5 colony forming units (CFU) per mL) containing two-fold serial dilutions of minocycline in CAMH broth either in the absence or presence of the test EPI compounds. In all assays, each serial dilution of minocycline was present in duplicate. The final volume in each well was 0.1 mL, and the microtiter plates were incubated aerobically for 24 hours at 37° C. Bacterial growth was then monitored by measuring the optical density (OD) at 600 nm using a VersaMax® plate reader (Molecular Devices, Inc., Sunnyvale, Calif.), with the MIC being defined as the lowest compound concentration at which growth was ≥90% inhibited compared to antibiotic-free control. The following Gram-negative bacterial strains were included in these assays: • Escherichia coli W4573, ATCC 25922, and ATCC BAA-201 (an extended spectrum β-lactamase (ESBL)-producing strain that expresses the TEM-3 β-lactamase). • Klebsiella pneumoniae ATCC 13883 and ATCC 700603 (an ESBL-producing strain that expresses the SHV-18 β-lactamase). • Pseudomonas aeruginosa ATCC 27853. The efflux pump mutant E. coli strain N43 (acrA1) was used as a positive control.
The enhancement is the ratio of the minocycline MIC in the absence of test compound to the minocycline MIC in the presence of test compound.

SMILES | Enhancement
Cl.Cl.NCCC[C@H](N)CNC(=O)c1ccc(C(F)(F)F)c(C(F)(F)F)c1 [Example 6, (S)-5-(3,4-Bis(trifluoromethyl)benzamido)pentane-1,4-diaminium chloride] | 32
Cl.Cl.NCCC[C@H](N)CNC(=O)c1cccc(C(F)(F)F)c1 [Example 2, (S)-5-(3-(trifluoromethyl)benzamido)pentane-1,4-diaminium chloride] | 2
Cl.Cl.NCCC[C@H](N)CNC(=O)c1cc(-c2ccc(F)cc2)cc(-c2ccc(F)cc2)c1 [Example 13, (S)-5-(4,4″-difluoro-[1,1′:3′,1″-terphenyl]-5′-carboxamido)pentane-1,4-diaminium chloride] | 128
Cl.Cl.NCCC[C@H](N)CNC(=O)c1ccc(C(F)(F)F)cc1 [Example 3, (S)-5-(4-(trifluoromethyl)benzamido)pentane-1,4-diaminium chloride] | 4
Cl.Cl.NCCC[C@H](N)CNC(=O)c1ccccc1C(F)(F)F [Example 1, (S)-5-(2-(trifluoromethyl)benzamido)pentane-1,4-diaminium chloride] | 1
Cl.Cl.NCCC[C@H](N)CNC(=O)c1cc(-c2ccccc2)cc(-c2ccccc2)c1 [Example 11, (S)-5-([1,1′:3′,1″-terphenyl]-5′-carboxamido)pentane-1,4-diaminium chloride] | 128
Cl.Cl.NCCC[C@H](N)CNC(=O)c1cc(C(F)(F)F)cc(C(F)(F)F)c1 [Example 7, (S)-5-(3,5-bis(trifluoromethyl)benzamido)pentane-1,4-diaminium chloride] | 16
CC(C)(C)c1cc(C(=O)NC[C@@H](N)CCCN)cc(C(C)(C)C)c1.Cl.Cl [Example 10, (S)-5-(3,5-di-tert-butylbenzamido)pentane-1,4-diaminium chloride] | 64
Cl.Cl.NCCC[C@H](N)CNC(=O)c1ccccc1-c1ccccc1 [Example 4, (S)-5-([1,1′-biphenyl]-2-carboxamido)pentane-1,4-diaminium chloride] | 2
Cl.Cl.NCCC[C@@H](N)CNC(=O)c1cc(C(F)(F)F)cc(C(F)(F)F)c1 [Example 8, (R)-5-(3,5-bis(trifluoromethyl)benzamido)pentane-1,4-diaminium chloride] | 8
Cl.Cl.NCC[C@H](N)CNC(=O)c1cc(C(F)(F)F)cc(C(F)(F)F)c1 [Example 9, (S)-4-(3,5-bis(trifluoromethyl)benzamido)butane-1,3-diaminium chloride] | 16
NC[C@@H](N)CCCNC(=O)c1cc(-c2ccccc2)cc(-c2ccccc2)c1 [Example 12, (S)-5-([1,1′:3′,1″-terphenyl]-5′-carboxamido)pentane-1,2-diaminium chloride] | 2
Cl.Cl.NCCC[C@H](N)CNC(=O)c1cc(C(F)(F)F)ccc1C(F)(F)F [Example 5, (S)-5-(2,5-bis(trifluoromethyl)benzamido)pentane-1,4-diaminium chloride] | 2
